Experimental data taken from patent publication US10202391B2, “Chemical compounds” (AstraZeneca AB, priority 2015, dated 2019).

Assays:
H2009 cell line = experiment: Combination cell growth inhibition (Sytox Green, Loewe synergy), H2009; format: cell-based, human; conditions: Example 18 with selumetinib, 6x6 dosing matrix 0-10 μmol/L, 3 days, Loewe model, average of three or more experiments
Description: (§1) A549 is a human non small cell lung cancer line carrying an oncogenic mutation in the KRAS gene (G12S). H2122 is a human non small cell lung cancer line carrying an oncogenic mutation in the KRAS gene (G12C). H2009 is a human non small cell lung cancer line carrying an oncogenic mutation in the KRAS gene (G12A). Calu6 is a human non small cell lung cancer line carrying mutation in the KRAS ([…]) gene. All cell lines were obtained from the American Type Culture Collection.
(§2) All cell line were maintained at 37° C. and 5% CO2 in a humidified atmosphere and grown in RPMI-1640 growth media supplemented with 10% FBS and 2 mmol/L glutamine. […]
(§3) Cells were seeded in 384-well black, clear bottomed plates (Greiner Bio-One, Stonehouse, UK), cultured for 18-24 hours and treated with increasing concentrations of Example 18 and selumetinib (0-10 μmol/L) in a 6×6 dosing matrix. […] After 3 days of treatment, live cell number was determined using a Sytox Green endpoint as described previously (“Davies B R, Greenwood H, Dudley P, et al: Preclinical pharmacology of AZD5363, an inhibitor of AKT: Pharmacodynamics, antitumor activity, and correlation of monotherapy activity with genetic background. Mol Cancer Ther 11(4):873-87, 2012”). […] Cells were then permeabilised by the overnight addition of saponin (0.03% final concentration, diluted in TBS-EDTA buffer) and a total cell count measured. […]

Calu6 cell line = experiment: Combination cell growth inhibition (Sytox Green, Loewe synergy), Calu6; format: cell-based, human; conditions: Example 18 with selumetinib, 6x6 dosing matrix 0-10 μmol/L, 3 days, Loewe model, average of three or more experiments
Description: as §1, §2, §3

COC[C@H]1Cn2cc(-c3nc(Nc4ccnn4C)ncc3C)nc2C(=O)N1Cc1ccc(F)c(F)c1 [Example 18, (R)-7-(3,4-Difluorobenzyl)-6-(methoxymethyl)-2-(5-methyl-2-((1-methyl-1H-pyrazol-5-yl)amino)pyrimidin-4-yl)-6,7-dihydroimidazo[1,2-a]pyrazin-8(5H)-one]
Synergy score (H2009 cell line): 67.5
Synergy score (Calu6 cell line): 3
